The values below come from ChEMBL document CHEMBL1158939, “Auranticins A and B: two new depsidones from a mangrove isolate of the fungus Preussia aurantiaca” (J Nat Prod, 1991).

For one assay, the system named is Staphylococcus aureus. Kind of assay: Antimicrobial activity against Staphylococcus aureus at 50 ug/disk. Type of assay: functional, organism-based.
The test system of another assay is Bacillus subtilis. Description: Antimicrobial activity against Bacillus subtilis at 5 ug/disk. Type of assay: functional, organism-based.

The structures appear in SMILES notation. Calls of active or inactive are those of the source. The rule behind the calls is not given here.

Take `C/C=C(\C)c1cc(OC)c(C)c2c1Oc1c(C=O)c(O)cc(/C(C)=C/C(=O)O)c1C(=O)O2`: the result with Staphylococcus aureus and in the assay with Bacillus subtilis was Active.

Regarding `C/C=C(\C)c1cc(OC)c(C)c2c1Oc1c(CO)c(O)cc(/C(C)=C/C(=O)O)c1C(=O)O2`, the outcome with Staphylococcus aureus and in the assay with Bacillus subtilis was Active.
